Legend:
fresh red roses = assay: Cut flower life test: 5 fresh red roses per beaker of treated tap water, monitored daily for bloom death; format: in vivo, rose; settings: for Average Flower Life: 5 per beaker
Description: In the following examples, test were conducted with fresh red roses obtained from a single source. The stems were cut (under water) and, for each experimental test, 5 roses were placed in a beaker. The same person monitored the flowers every day (the criterion for bloom death was that the monitor would have discarded the roses if the roses were in the monitor's home). Thereafter, the average flower life in days was calculated for each experimental condition.
Five beakers of 800 ml tap water containing 0, 2, 5, 10 and 15 ppm chlorine dioxide were used for these tests.
Example 1 was repeated using tap water alone, tap water containing 5 ppm chlorine dioxide, tap water containing “Aquaplus®” and tap water containing 5 ppm chlorine dioxide and “Aquaplus®”. “Aquaplus®” is described as a fresh flower nutrient and water clarifier and was obtained from Syndicate Sales, Kokomo, Ind.

[1] = Spectroscopic evaluation of the flower water for chlorine dioxide; format: physicochemical; settings: third day of the tests; uncovered beakers, tap water
Text: As may be seen from the results set forth in Table 1, the roses in the beaker containing no chlorine dioxide had the shortest lifetime. […] Roses with less or more chlorine dioxide had intermediate lifetimes. […] This was not surprising since the beakers were uncovered and chlorine dioxide could readily escape or decompose.

SMILES: [O][Cl+][O-] [Chlorine Dioxide, chlorine dioxide]
- Average Flower Life (fresh red roses; 2 ppm chlorine dioxide in 800 ml tap water): 5.6 days
- Change of lifetime of the roses compared to no chlorine dioxide / plain water control (fresh red roses; 5 ppm chlorine dioxide): approximately doubled
- Average Flower Life (fresh red roses; 5 ppm chlorine dioxide in 800 ml tap water): 7.8 days
- Average Flower Life (fresh red roses; 10 ppm chlorine dioxide in 800 ml tap water): 5.8 days
- Average Flower Life (fresh red roses; 15 ppm chlorine dioxide in 800 ml tap water): 5.8 days
- Flower Lifetime (fresh red roses; Example 2, tap water containing 5 ppm ClO2): 7.8 days
- Chlorine dioxide present in the flower water [1]: no chlorine dioxide was present
